Values of other authors in patent US7025979B2, “Male contraceptive formulation comprising norethisterone” (Schering AG, priority 2000, dated 2006).

How the values were obtained:
spermatogenesis = settings: use of the progestin; literature (Merrigiola et al, Bebb et al)
[1] = in higher doses; literature (Merrigiola et al, Bebb et al)

CC(=O)O[C@]1(C(C)=O)CC[C@H]2[C@@H]3C=C(Cl)C4=CC(=O)[C@@H]5C[C@@H]5[C@]4(C)[C@H]3CC[C@@]21C [cyproterone acetate]
suppression of spermatogenesis (spermatogenesis): ineffective in the suppression of spermatogenesis | red blood cell count [1]: significant decreases in red blood cell count

C#C[C@]1(O)CC[C@H]2[C@@H]3CCC4=CC(=O)CC[C@@H]4[C@H]3CC[C@@]21CC [levonorgestrel]
red blood cell count [1]: significant decreases in red blood cell count
